The target of this test is T1, β-catenin (Homo sapiens, UniProt P35222).
T1 sequence (P35222 2-781): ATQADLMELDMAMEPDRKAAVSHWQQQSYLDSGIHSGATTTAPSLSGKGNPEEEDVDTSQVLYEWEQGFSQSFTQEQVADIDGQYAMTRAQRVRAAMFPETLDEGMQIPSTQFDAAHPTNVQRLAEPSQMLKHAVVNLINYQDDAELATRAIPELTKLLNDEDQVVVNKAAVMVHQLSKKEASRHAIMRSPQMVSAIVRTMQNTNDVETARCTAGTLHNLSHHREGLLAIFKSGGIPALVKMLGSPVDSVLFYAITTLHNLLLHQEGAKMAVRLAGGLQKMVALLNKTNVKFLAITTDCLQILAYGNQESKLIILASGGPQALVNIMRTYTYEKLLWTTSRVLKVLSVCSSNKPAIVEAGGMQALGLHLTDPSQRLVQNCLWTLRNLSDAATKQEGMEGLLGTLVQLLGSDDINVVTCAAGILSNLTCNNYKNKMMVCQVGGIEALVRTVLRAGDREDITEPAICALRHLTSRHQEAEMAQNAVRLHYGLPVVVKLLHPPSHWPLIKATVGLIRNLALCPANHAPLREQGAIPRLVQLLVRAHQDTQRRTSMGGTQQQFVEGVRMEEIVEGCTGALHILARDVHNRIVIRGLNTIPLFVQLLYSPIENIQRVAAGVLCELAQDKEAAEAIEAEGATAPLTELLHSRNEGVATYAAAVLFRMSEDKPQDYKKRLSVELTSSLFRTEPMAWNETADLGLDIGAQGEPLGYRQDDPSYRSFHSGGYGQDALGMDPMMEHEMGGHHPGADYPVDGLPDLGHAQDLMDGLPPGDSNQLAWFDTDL
Put plainly: Biolayer interferometry. Type of test: binding.

The values below come from article PMC12639897 (Journal of Translational Medicine, 2025).

The compound `Cc1cccc2c3c(ccc12)C1=C(C(=O)C3=O)[C@@H](C)CO1` [DHTS, 15,16-Dihydrotanshinone I] yielded a Kd of 14.6 µM.

In general, Kd refers to the equilibrium constant for the complex coming apart. A higher Kd goes with weaker binding.
